The text below walks through data of patent US10526337B2, “Heteroaryl derivative or pharmaceutically acceptable salt thereof, preparation method therefor, and pharmaceutical composition for preventing or treating diseases associated with PI3 kinases, containing same as active ingredient” (KOREA RESEARCH INSTITUTE OF CHEMICAL TECHNOLOGY, priority 2015, dated 2020).

Some results are limits rather than exact numbers.

What all share (conditions): ATP=10 uM, sample concentration=100 nM
In test [1] the target is T1, PI3 Kinase (p110α/p85α) (h) (Homo sapiens, UniProt P42336).
T1 construct: endogenous in cells; host or cells: MDA-MB-453
As to the kind of experiment: Inhibition of phosphatidylinositol 3-kinase alpha (PI3K α), pAkt Western blotting in EGF-stimulated MDA-MB-453 cells. In kind it is cell-based. The protocol: The inhibition of phosphatidylinositol 3 kinase alpha (PI3K α) by those compounds prepared in Examples 1˜98 was investigated by the following experiment. The inhibition activity of each compound was measured in the following conditions: ATP=10 uM, and sample concentration=100 nM.
Human breast cancer cells (MDA-MB-453) cultured in DMEM (Dulbecco's Modified Eagle Medium, Hyclon, SH30243.01) supplemented with 10% fetal bovine serum (Hyclon, USA) were distributed in a 12-well plate at the density of 1,000,000 cells/well. The cells were stabilized in a 37° C. CO2 for 24 hours and then treated with each compound for 1 and half hours. The cells were treated with 10 ng/mL of EGF (Epidermal Growth Factor, 10 μg/mL; R&D, 2150-C5) to increase the intracellular activity of PI3K alpha. 5 minutes later, the medium was discarded and the cells were washed with cold PBS (phosphate buffered saline, Gibco, 14190-250). PBS was then eliminated completely by using a pipette. Western blotting was performed as described in step 2 to evaluate the intracellular PI3K alpha activity.
(§1) The stimulated cells were transferred in a 1.5 mL tube, followed by centrifugation at 3000 rpm for 1 minute. 100 μL of RIPA buffer (radioimmunoprecipitation assay buffer, 50 mM Tris-HCl, 5 mM EDTA, 150 mM NaCl, 1% NP-40, 1 mM PMSF, pH 8.0; ELPIS, Korea) was added thereto, which was stored in a 4° C. refrigerator for 12 hours. Centrifugation was performed at 4° C. at 14,000 rpm for 20 minutes. The supernatant was transferred into a new 1.5 mL tube. Protein was quantified by BCA (bicinchoninic acid) method and samples were prepared. The composition of the sample was as follows: sample buffer (ELPIS, EBA-1052) 5×, protein 10 μg, and 1× sample buffer to make the total volume 20 μL. The sample was heated at 100° C. for 5 minutes. The evaporated water vapor was condensed in a refrigerator. The liquid stained on the wall was fallen down by centrifugation for a few seconds. The sample proceeded to 10% SDS (Sodium Dodecyl Sulfate) acrylamide gel for separation. The separated protein was transferred onto PVDF (poly-vinyl difluoride) membrane, followed by reaction with pAkt (phospho protein kinase B) antibody (Ser473 or Thr308; Cell signaling, 9271s or 13038s) for 12 hours at 4° C. The membrane was washed with TBST (Tris-Buffered Saline with Tween 20, 10 mM Tris-HCl, pH 7.5, 150 mM NaCl, 0.1% Tween-20) three times for 5 minutes each, to which the secondary antibody (rabbit antibody, Santacruz, sc-2004) was added, followed by reaction at room temperature for 2 hours. The membrane was washed with TBST three times for 10 minutes each, to which ECL (enhanced chemiluminescence, Thermo, NCI34095KR) was sprayed. Bands were investigated by using LAS-3000.
A general note: A western blot detects proteins with antibodies after separation by electrophoresis.

Test [2] deals with T2, PI3 Kinase (p110β/p86α) (h) (Homo sapiens, UniProt P42338).
T2 construct: endogenous in cells; host or cells: PC3
T2 sequence (P42338 whole entry): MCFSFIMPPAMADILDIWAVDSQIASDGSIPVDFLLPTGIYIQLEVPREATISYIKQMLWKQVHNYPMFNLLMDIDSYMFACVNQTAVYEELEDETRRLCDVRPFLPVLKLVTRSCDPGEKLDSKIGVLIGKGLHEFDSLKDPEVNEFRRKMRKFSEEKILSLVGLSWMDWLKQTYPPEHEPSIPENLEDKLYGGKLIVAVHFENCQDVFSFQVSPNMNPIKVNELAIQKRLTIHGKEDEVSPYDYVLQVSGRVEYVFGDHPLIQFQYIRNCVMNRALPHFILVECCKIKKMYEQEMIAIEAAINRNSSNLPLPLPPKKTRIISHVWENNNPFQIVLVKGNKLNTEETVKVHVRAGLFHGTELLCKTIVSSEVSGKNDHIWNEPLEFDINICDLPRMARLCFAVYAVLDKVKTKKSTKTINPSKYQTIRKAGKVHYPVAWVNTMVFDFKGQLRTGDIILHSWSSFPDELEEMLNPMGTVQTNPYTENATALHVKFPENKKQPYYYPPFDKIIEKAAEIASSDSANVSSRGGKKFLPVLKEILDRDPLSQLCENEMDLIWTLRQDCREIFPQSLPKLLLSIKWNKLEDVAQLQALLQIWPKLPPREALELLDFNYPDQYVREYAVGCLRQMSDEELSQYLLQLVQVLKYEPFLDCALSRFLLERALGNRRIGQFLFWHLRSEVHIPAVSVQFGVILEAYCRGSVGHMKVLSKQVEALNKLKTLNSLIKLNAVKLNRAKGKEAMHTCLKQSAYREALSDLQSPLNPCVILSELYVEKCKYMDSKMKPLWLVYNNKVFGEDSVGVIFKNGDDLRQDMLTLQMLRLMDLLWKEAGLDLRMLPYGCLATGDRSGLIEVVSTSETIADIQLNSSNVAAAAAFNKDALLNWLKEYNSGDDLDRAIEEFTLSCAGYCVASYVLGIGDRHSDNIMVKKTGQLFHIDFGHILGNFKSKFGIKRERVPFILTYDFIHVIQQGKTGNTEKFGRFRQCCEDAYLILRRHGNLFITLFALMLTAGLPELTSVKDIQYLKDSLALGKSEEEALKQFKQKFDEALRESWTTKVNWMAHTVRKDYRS
T2 sequence (P27986 whole entry partner): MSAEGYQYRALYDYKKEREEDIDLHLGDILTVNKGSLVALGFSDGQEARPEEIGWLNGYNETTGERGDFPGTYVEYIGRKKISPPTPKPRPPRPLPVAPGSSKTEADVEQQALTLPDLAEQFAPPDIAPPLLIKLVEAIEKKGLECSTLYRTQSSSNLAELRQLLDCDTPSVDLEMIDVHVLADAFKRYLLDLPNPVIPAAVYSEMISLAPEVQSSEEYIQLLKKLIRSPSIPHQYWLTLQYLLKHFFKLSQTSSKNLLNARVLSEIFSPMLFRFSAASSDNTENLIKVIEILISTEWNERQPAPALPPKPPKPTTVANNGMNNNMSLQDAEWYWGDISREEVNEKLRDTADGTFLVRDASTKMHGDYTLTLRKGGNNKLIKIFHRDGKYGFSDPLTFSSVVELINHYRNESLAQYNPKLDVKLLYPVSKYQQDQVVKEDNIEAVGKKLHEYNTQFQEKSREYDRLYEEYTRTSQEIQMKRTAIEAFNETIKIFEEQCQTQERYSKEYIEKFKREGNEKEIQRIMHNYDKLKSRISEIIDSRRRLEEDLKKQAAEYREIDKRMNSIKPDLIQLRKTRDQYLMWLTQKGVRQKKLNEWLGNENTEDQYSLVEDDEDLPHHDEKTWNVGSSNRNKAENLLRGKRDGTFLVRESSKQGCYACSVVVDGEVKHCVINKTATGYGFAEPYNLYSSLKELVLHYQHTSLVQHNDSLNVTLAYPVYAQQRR
As to the kind of experiment: Inhibition of phosphatidylinositol 3-kinase beta (PI3K β), pAkt Western blotting in LPA-stimulated PC3 cells. In kind it is cell-based. The protocol:
as §1
The inhibition of phosphatidylinositol 3 kinase beta (PI3K β) by those compounds prepared in Examples 1˜98 was investigated by the following experiment. The inhibition activity of each compound was measured in the following conditions: ATP=10 uM, and sample concentration=100 nM.
Human prostate cancer cells (PC3 cells) cultured in DMEM (Dulbecco's Modified Eagle Medium, Hyclon, SH30243.01) supplemented with 10% fetal bovine serum (Hyclon, USA) were distributed in a 12-well plate at the density of 1,000,000 cells/well. The cells were stabilized in a 37° C. CO2 for 24 hours and then treated with each compound for 1 and half hours. The cells were treated with 10 ng/mL of LPA (lysophosphatidic acid, 10 μg/mL; R&D, 2150-05) to increase the intracellular activity of PI3K beta. 5 minutes later, the medium was discarded and the cells were washed with cold PBS (phosphate buffered saline, Gibco, 14190-250). PBS was then eliminated completely by using a pipette. Western blotting was performed according to the same manner as described in step 2 of Experimental Example 1 to evaluate the intracellular PI3K beta activity.

Another test deals with T3, PI3 Kinase (p120γ) (h) (Homo sapiens, UniProt P48736).
T3 construct: endogenous in cells; host or cells: RAW264.7
T3 sequence (P48736 whole entry): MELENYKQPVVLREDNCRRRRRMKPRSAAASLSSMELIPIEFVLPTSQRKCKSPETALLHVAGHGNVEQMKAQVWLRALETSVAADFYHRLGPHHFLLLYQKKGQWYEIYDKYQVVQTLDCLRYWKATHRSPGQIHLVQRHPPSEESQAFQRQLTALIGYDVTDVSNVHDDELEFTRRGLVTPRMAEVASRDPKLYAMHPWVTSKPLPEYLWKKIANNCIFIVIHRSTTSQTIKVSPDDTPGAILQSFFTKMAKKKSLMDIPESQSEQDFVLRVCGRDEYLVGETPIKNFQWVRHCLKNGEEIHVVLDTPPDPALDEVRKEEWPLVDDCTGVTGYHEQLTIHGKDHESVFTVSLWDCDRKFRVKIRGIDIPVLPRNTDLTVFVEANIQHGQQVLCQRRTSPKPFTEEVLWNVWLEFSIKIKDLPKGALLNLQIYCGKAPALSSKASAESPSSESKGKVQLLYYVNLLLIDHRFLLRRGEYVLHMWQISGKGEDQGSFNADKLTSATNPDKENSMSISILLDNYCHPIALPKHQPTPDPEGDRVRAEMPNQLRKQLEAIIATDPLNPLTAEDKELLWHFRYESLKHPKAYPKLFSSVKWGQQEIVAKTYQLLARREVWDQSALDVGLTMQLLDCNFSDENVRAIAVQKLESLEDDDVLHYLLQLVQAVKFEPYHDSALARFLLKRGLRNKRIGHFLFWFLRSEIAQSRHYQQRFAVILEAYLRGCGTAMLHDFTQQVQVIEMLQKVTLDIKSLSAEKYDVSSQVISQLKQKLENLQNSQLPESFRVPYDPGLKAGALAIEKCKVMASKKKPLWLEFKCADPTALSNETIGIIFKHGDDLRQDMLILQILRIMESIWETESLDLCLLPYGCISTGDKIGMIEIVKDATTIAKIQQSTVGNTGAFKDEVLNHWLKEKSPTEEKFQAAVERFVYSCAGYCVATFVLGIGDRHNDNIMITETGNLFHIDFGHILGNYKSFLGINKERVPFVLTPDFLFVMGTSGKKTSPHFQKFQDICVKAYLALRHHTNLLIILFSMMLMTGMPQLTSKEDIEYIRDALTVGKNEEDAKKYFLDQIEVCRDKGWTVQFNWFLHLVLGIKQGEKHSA
As to the kind of experiment: Inhibition of phosphatidylinositol 3-kinase gamma (PI3K γ), pAkt Western blotting in C5a-stimulated RAW264.7 macrophages. In kind it is cell-based, mouse. In short, it runs like this:
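Enzyme: PI3Kγ activity measured at ATP=10 uM with compound at 100 nM. Cellular: RAW264.7 macrophages treated with compound 1.5 h, then stimulated with 10 ng/mL C5a for 5 min; lysates (10 μg protein) probed by Western blot for pAkt (Ser473 or Thr308), ECL detection.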

In test [3] the target is T4, PI3 Kinase (p110δ/p85α) (h) (Homo sapiens, UniProt O00329).
T4 construct: endogenous in cells; host or cells: Raji
T4 sequence (O00329 whole entry): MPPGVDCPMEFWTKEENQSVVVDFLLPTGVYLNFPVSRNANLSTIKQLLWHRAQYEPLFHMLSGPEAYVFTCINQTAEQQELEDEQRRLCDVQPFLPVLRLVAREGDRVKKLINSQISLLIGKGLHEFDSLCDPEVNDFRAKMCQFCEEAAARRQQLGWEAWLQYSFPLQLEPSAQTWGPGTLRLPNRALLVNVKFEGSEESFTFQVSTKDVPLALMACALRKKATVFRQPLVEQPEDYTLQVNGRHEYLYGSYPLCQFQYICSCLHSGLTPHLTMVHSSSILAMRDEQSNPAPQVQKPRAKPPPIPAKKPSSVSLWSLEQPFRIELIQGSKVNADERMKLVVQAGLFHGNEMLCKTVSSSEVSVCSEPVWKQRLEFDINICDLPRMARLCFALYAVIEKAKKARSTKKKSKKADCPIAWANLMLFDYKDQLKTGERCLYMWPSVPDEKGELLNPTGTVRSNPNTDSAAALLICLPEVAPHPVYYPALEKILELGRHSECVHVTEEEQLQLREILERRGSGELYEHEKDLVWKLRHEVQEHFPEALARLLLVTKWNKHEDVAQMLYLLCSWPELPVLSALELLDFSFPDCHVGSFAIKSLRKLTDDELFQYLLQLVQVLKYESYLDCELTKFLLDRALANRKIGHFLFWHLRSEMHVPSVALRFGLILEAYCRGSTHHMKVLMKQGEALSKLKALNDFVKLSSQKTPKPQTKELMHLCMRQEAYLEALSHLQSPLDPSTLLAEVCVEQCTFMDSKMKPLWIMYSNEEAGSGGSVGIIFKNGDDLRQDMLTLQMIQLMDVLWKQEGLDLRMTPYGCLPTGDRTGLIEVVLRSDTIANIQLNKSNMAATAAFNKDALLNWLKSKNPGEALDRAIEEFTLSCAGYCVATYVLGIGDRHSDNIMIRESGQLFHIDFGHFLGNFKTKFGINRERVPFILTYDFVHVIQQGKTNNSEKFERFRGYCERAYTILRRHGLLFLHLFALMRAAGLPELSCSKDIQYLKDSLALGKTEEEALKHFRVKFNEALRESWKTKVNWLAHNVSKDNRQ
T4 sequence (P27986 whole entry partner): as the sequence (P27986 whole entry partner) above
As to the kind of experiment: Inhibition of phosphatidylinositol 3-kinase delta (PI3K δ), pAkt Western blotting in IgM-stimulated Raji cells. It counts as cell-based. In short, it runs like this:
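Raji cells were treated with compound for 1.5 h, then stimulated with 0.25 μg/mL IgM for 30 min to activate PI3Kδ. Lysates were Western blotted for pAkt (Ser473 or Thr308) with ECL detection. Conditions stated: ATP=10 uM, sample concentration=100 nM.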

Broadly, the IC50 is the concentration that gives 50% inhibition. With `C[C@H](Nc1ncnc2c1C(=O)N(C)CN2)c1c(Cl)c2cccc(Cl)c2c(=O)n1-c1ccccc1` [Example 40, (S)-5-((1-(4,8-dichloro-1-oxo-2-phenyl-1,2-dihydroisoquinoline-3-yl)ethyl)amino)-3-methyl-2,3-dihydropyrimido[4,5-d]pyrimidine-4(1H)-one], the IC50 in test [1] is above 500 nM; in test [2] it was above 500 nM; on PI3 Kinase (p120γ) (h) it was 10 to 500 nM; in test [3], below 10 nM.
Turning to `C[C@H](Nc1nc(N)nc2[nH]cnc(=O)c12)c1cc2ccccc2nc1-c1ccccc1` [Example 88, (S)-7-amino-5-((1-(2-phenylquinoline-3-yl)ethyl)amino)pyrimido[4,5-d]pyrimidine-4(1H)-one], the IC50 (in test [1]; in test [2]; at PI3 Kinase (p120γ) (h); in test [3]) was 10 to 500 nM in each case.
For the molecule `C[C@H](Nc1ncnc2[nH]ccc(=O)c12)c1c(Cl)c2cccc(Cl)c2c(=O)n1-c1ccccc1` [Example 10, (S)-4-((1-(4,8-dichloro-1-oxo-2-phenyl-1,2-dihydroisoquinoline-3-yl)ethyl)amino)pyrido[2,3-d]pyrimidine-5(8H)-one], the IC50 was above 500 nM in test [1], above 500 nM in test [2], 10 to 500 nM on PI3 Kinase (p120γ) (h) and below 10 nM in test [3].
In the case of `C[C@H](Nc1nc(N)nc2[nH]cnc(=O)c12)c1cc2cccc(Cl)c2c(=O)n1-c1ccccc1` [Example 85, (S)-7-amino-5-(1-(8-chloro-1-oxo-2-phenyl-1,2-dihydroisoquinoline-3-yl)ethylamino)pyrimido[4,5-d]pyrimidine-4(1H)-one], the IC50 in test [1] was above 500 nM; in test [2], above 500 nM; against PI3 Kinase (p120γ) (h), 10 to 500 nM; in test [3], 10 to 500 nM.
For the molecule `C[C@H](Nc1nc(N)nc2[nH]ccc(=O)c12)c1nc2ccc(F)cc2cc1-c1ccccn1` [Example 25, (S)-2-amino-4-((1-(6-fluoro-3-(pyridine-2-yl)quinoline-2-yl)ethyl)amino)pyrido[2,3-d]pyrimidine-5(8H)-one], the IC50 in test [1] is above 500 nM; in test [2], above 500 nM; on PI3 Kinase (p120γ) (h), below 10 nM; in test [3], below 10 nM.
As for `CC(Nc1ncnc2[nH]ccc(=O)c12)c1nc2cccc(Cl)c2cc1-c1ccccn1` (stereo not drawn) [Example 33, 4-((1-(5-chloro-3-(pyridine-2-yl)quinoline-2-yl)ethyl)amino)pyrido[2,3-d]pyrimidine-5(8H)-one], the IC50 in test [1] is above 500 nM; in test [2], above 500 nM; against PI3 Kinase (p120γ) (h) it was 10 to 500 nM; in test [3], below 10 nM.
Consider `C[C@H](Nc1ncnc2[nH]cc(F)c(=O)c12)c1nc2cccc(Cl)c2c(=O)n1-c1ccccc1` [Example 21, (S)-4-((1-(5-chloro-4-oxo-3-phenyl-3,4-dihydroquinazoline-2-yl)ethyl)amino)-6-fluoropyrido[2,3-d]pyrimidine-5(8H)-one], for which the IC50 in test [1] was 10 to 500 nM; in test [2], 10 to 500 nM; against PI3 Kinase (p120γ) (h) it was 10 to 500 nM; in test [3], below 10 nM.
For the molecule `C[C@H](Nc1ncnc2[nH]ccc(=O)c12)c1nc2ccc(F)cc2c(=O)n1-c1cccc(F)c1` [Example 30, (S)-4-((1-(6-fluoro-3-(3-fluorophenyl)-4-oxo-3,4-dihydroquinazoline-2-yl)ethyl)amino)pyrido[2,3-d]pyrimidine-5(8H)-one], the half-inhibitory concentration (IC50) in test [1] is above 500 nM; in test [2], above 500 nM; on PI3 Kinase (p120γ) (h), 10 to 500 nM; in test [3], below 10 nM.
On to `C[C@H](Nc1ncnc2c1C(=O)CCN2)c1c(Cl)c2cccc(Cl)c2c(=O)n1-c1ccccc1` [Example 98, (S)-4-((1-(4,8-dichloro-1-oxo-2-phenyl-1,2-dihydroisoquinoline-3-yl)ethyl)amino)-7,8-dihydropyrido[2,3-d]pyrimidine-5(6H)-one], for which the IC50 is above 500 nM in test [1], 10 to 500 nM in test [2], 10 to 500 nM on PI3 Kinase (p120γ) (h) and below 10 nM in test [3].
Consider `Cc1c[nH]c2nc(N)nc(N[C@@H](C)c3cc4cccc(Cl)c4c(=O)n3-c3ccccc3)c2c1=O` [Example 18, (S)-2-amino-4-((1-(8-chloro-1-oxo-2-phenyl-1,2-dihydroisoquinoline-3-yl)ethyl)amino)-6-methylpyrido[2,3-d]pyrimidine-5(8H)-one], for which the IC50 in test [1] is 10 to 500 nM; in test [2] it was 10 to 500 nM; on PI3 Kinase (p120γ) (h), 10 to 500 nM; in test [3], below 10 nM.
On to `C[C@H](Nc1ncnc2[nH]ccc(=O)c12)c1nc2ccc(F)cc2c(=O)n1-c1ccccc1` [Example 29, (S)-4-((1-(6-fluoro-4-oxo-3-phenyl-3,4-dihydroquinazoline-2-yl)ethyl)amino)pyrido[2,3-d]pyrimidine-5(8H)-one], for which the IC50 in test [1] is above 500 nM; in test [2] it was above 500 nM; against PI3 Kinase (p120γ) (h), 10 to 500 nM; in test [3], below 10 nM.
On to `C[C@H](Nc1ncnc2[nH]cc(F)c(=O)c12)c1cc2cccc(Cl)c2c(=O)n1-c1ccccc1` [Example 20, (S)-4-((1-(8-chloro-1-oxo-2-phenyl-1,2-dihydroisoquinoline-3-yl)ethyl)amino)-6-fluoropyrido[2,3-d]pyrimidine-5(8H)-one], for which the IC50 in test [1] was above 500 nM; in test [2] it was above 500 nM; against PI3 Kinase (p120γ) (h), 10 to 500 nM; in test [3] it was below 10 nM.
Turning to `C[C@H](Nc1ncnc2[nH]ccc(=O)c12)c1nc2ccc(F)cc2cc1-c1ccccn1` [Example 7-1, (S)-4-((1-(6-fluoro-3-(pyridine-2-yl)quinoline-2-yl)ethyl)amino)pyrido[2,3-d]pyrimidine-5(8H)-one], the IC50 in test [1] was above 500 nM; in test [2] it was above 500 nM; against PI3 Kinase (p120γ) (h) it was above 500 nM; in test [3], 10 to 500 nM.
As to `C[C@H](Nc1ncnc2[nH]ccc(=O)c12)c1nc2cccc(Cl)c2c(=O)n1-c1ccccn1` [Example 3, (S)-4-((1-(5-chloro-4-oxo-3-(pyridine-2-yl)-3,4-dihydroquinazoline-2-yl)ethyl)amino)pyrido[2,3-d]pyrimidine-5(8H)-one], the IC50 in test [1] was above 500 nM; in test [2], above 500 nM; at PI3 Kinase (p120γ) (h) it was 10 to 500 nM; in test [3], below 10 nM.
`CCCN1CNc2ncnc(N[C@@H](C)c3cc4cccc(Cl)c4c(=O)n3-c3ccccc3)c2C1=O` [Example 61, (S)-5-(1-(8-chloro-1-oxo-2-phenyl-1,2-dihydroisoquinoline-3-yl)ethylamino)-3-propyl-2,3-dihydropyrimido[4,5-d]pyrimidine-4(1H)-one]: the IC50 (in test [1]; in test [2]; against PI3 Kinase (p120γ) (h); in test [3]) was above 500 nM in each case.
